{"source": "paper PMC5518105", "about": "“Identification and characterization of the antiplasmodial activity of Hsp90 inhibitors” (Malaria Journal, 2017)", "key": {"human Hsp90α": {"target": "T1, human Hsp90α (Homo sapiens, UniProt P07900)", "T1 construct": "Full-length human recombinant HSP90α was purchased; purchased Cayman Chemicals, MI", "assay": "Biacore SPR analysis, full-length human Hsp90α", "format": "binding", "details": "SPR, 25 °C", "description": "(§1) Full-length human recombinant HSP90α was purchased (Cayman Chemicals, MI), while the malaria recombinant parasite proteins were generated according to the following protocol. […] Growth at 37 °C continued until the OD600 reached ~1.0, whereupon the temperature was lowered to 18 °C and protein expression was induced by the addition of 1 mM isopropyl β-D-thiogalactopyranoside (IPTG). Overnight post-induction cells were collected by centrifugation and resuspended in binding buffer [50 mM Hepes pH 7.5, 500 mM NaCl, 1 mM benzamidine, and 1 mM phenylmethanesulfonyl fluoride (PMSF)]. The cells were lysed by adding chemical lysis buffer (2% CHAPS, 0.1 mg/mL lysozyme and 0.5 U/mL benzonase), the lysate was clarified by centrifugation. The supernatant was loaded on to a nickel-nitrilotriacetic acid column pre-equilibrated with binding buffer (50 mM Hepes pH 7.5, 500 mM NaCl). Following a wash step with binding buffer containing 5 mM imidazole, the bound protein was eluted with elution buffer (50 mM Hepes pH 7.5, 500 mM NaCl, 250 mM imidazole). The eluate was then loaded on to a 16/60 Superdex 200 size exclusion column pre-equilibrated with 50 mM Hepes pH 7.5 and 500 mM NaCl. Target protein-containing fractions were pooled and concentrated using centrifugal filter units (Amicon). The final protein products and samples for different steps in the purification procedures were evaluated in SDS-Page gels.\nSPR measurements were performed on Biacore T200 instrument (GE Healthcare) at 25 °C. Purified P. falciparum Hsp90 and PfGRP94 N-terminal domain, and full-length human Hsp90α were immobilized on a CM5 sensorchip using NHS/EDC coupling following the manufacturer protocol to a level of <10,000 RUs, a reference surfaces without immobilized proteins served as a control for nonspecific binding and refractive index changes. […] The running buffer was 10 mM HEPES, pH 7.4, 150 mM NaCl, 0.005% P20, 1% DMSO and 2 mM MgCl2. Buffer alone injections were used as blanks. The sensor surface was regenerated between injections with a short injection of a buffer 10 mM HEPES, pH 7.4, 150 mM NaCl, 0.005% P20 and 3 mM EDTA. The Biacore responses recorded during the 30 s of the injection were used to estimate the association constant (k on) and the 300 s after the injection were used to estimate the dissociation constant (k off). All kinetic constants were estimated using double subtracted sensorgrams using BiaEvaluation Software (GE Healthcare), the kinetic constants were used to calculate the dissociation constant (K d)."}, "[1]": {"tested_on": "Primary normal human lung fibroblasts (NHLFs)", "assay": "Drug cytotoxicity assay (MTT)", "details": "24 h", "procedure": "Primary normal human lung fibroblasts (NHLFs) were seeded on 24-well plates and cultured in FGM-2 media (LONZA, Basel, Switzerland) until they reached 80% confluency. […] Briefly, 50 µL of MTT dye was added into the media and the cells were returned to the incubator for 3 h. Then 500 µL of solubilization solution was added to dissolve the MTT formazan crystals. […] The drug cytotoxicity assay was performed in triplicate."}, "P. falciparum 3D7 [2]": {"tested_on": "P. falciparum 3D7", "assay": "Parasite stage specific effect, 3D7", "format": "cell-based, Plasmodium falciparum", "details": "3D7, 24 h; 17-DMAG 1.2 µM, NVP-AUY922 0.72 µM", "description": "(§2) Synchronized P. falciparum cultures were used to determine the susceptibility of different parasite stages to Hsp90 inhibitors. Three synchronized cultures per strain, with a majority of the parasites in the ring (0–26 h post red blood cell infection), trophozoite (26–38 h) or schizont (38–48 h) stages respectively (Fig. 3). […] The cultures were exposed to one concentration of the Hsp90 inhibitor for 24 h. […] For each three exposed the cultures and the control for both strains 3D7 and W2, the parasitaemia and the developmental stage of the parasites were recorded. Before and after drug exposure, Giemsa-stained blood smears were scored by microscopy examination counting 100 infected erythrocytes per culture, and the proportion of each developmental stage was calculated."}, "P. falciparum 3D7 [3]": {"tested_on": "P. falciparum 3D7", "assay": "Recrudescence assay, 3D7", "format": "cell-based, Plasmodium falciparum", "description": "(§3) The assay is a modification of the previously reported bulk recrudescence assay. […] […] After drug exposure, the medium containing the drug was removed and the cultures were washed twice with compound-free media, and resuspended in RPMI to adjust haematocrit to 5%. The medium was changed every day and red blood cells were added every 2 days to adjust the haematocrit. The cultures were monitored daily until they reached 10% parasitaemia, which represented the end point of the experiment. Culture parasitaemia was determined by scoring >2000 erythrocytes in Giemsa-stained thin blood films as parasitized or not. The median number of days to reach this level of parasitaemia was reported for all the experiments. All experiments were conducted in triplicate; each replica was conducted on different days. The differences in the recovery times between control cultures to those exposed to Hsp90 inhibitors were analysed using the non-parametric statistic Kruskal–Wallis test. If the overall test was significant then Dunn’s multiple comparison tests were used to identify significant differences among pair comparisons. The same statistical analysis was applied when comparing P. falciparum cultures exposed to DHA alone versus DHA in combination with Hsp90 inhibitors. […] The statistical analyses were performed with the software Prism v6 (GraphPad Software, San Diego, CA)."}, "P. falciparum Hsp90": {"target": "P. falciparum Hsp90 (Plasmodium falciparum, UniProt Q8IC05)", "sequence (Q8IC05 entry or part of it)": "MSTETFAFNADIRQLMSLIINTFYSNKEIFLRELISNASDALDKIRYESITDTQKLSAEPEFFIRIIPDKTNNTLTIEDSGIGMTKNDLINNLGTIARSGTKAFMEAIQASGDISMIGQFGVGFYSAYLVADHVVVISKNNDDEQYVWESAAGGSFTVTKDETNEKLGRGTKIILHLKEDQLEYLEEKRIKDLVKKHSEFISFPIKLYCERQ", "assay": "biochemical", "format": "binding", "description": "as §1\n(§4) SPR measurements were performed on Biacore T200 instrument (GE Healthcare) at 25 °C. Purified P. falciparum Hsp90 and PfGRP94 N-terminal domain, and full-length human Hsp90α were immobilized on a CM5 sensorchip using NHS/EDC coupling following the manufacturer protocol to a level of <10,000 RUs, a reference surfaces without immobilized proteins served as a control for nonspecific binding and refractive index changes. Seven different concentrations of the ligands between 0.4 nM and 1 mM, were injected in triplicate over the sensor chip at 30 μL/min in random order. The running buffer was 10 mM HEPES, pH 7.4, 150 mM NaCl, 0.005% P20, 1% DMSO and 2 mM MgCl2. Buffer alone injections were used as blanks. The sensor surface was regenerated between injections with a short injection of a buffer 10 mM HEPES, pH 7.4, 150 mM NaCl, 0.005% P20 and 3 mM EDTA. The Biacore responses recorded during the 30 s of the injection were used to estimate the association constant (k on) and the 300 s after the injection were used to estimate the dissociation constant (k off). All kinetic constants were estimated using double subtracted sensorgrams using BiaEvaluation Software (GE Healthcare), the kinetic constants were used to calculate the dissociation constant (K d)."}, "P. falciparum Grp94": {"target": "P. falciparum Grp94 (Plasmodium falciparum, UniProt Q8I0V4)", "sequence (Q8I0V4 entry or part of it)": "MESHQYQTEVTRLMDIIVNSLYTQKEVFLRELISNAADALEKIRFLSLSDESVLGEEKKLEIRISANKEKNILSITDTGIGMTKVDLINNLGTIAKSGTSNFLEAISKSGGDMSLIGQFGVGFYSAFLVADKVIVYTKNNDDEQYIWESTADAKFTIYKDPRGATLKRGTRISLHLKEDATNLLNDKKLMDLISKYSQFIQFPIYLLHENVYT", "assay": "biochemical", "format": "binding", "details": "SPR, 25 °C", "description": "as §1, §4"}, "P. falciparum W2 [4]": {"tested_on": "P. falciparum W2", "assay": "Recrudescence assay, W2", "format": "cell-based, Plasmodium falciparum", "description": "as §3"}, "[5]": {"tested_on": "P. falciparum chloroquine resistant W2", "assay": "Growth inhibition assay (SYBR Green I), W2", "details": "W2, 72 h; for IC50: synchronized ring culture", "procedure": "(§5) A 50% suspension of non-infected O positive erythrocytes was added every 2 days to adjust haematocrit to 5%. Parasite cultures were maintained at 37 °C in 5% O2 and 5% CO2 atmosphere with daily changes of culture media.\n(§6) A synchronized P. falciparum culture, with over 80% ring forms, was used in the growth inhibition assay. […] A 190 μL aliquot of parasite culture was dispensed per well to microplates that were pre-dispensed with the compounds at various dilutions. […] Dilutions of Hsp90 inhibitors and DHA were prepared in water with a final concentration of DMSO below 0.05% (v/v).\n(§7) The microplates were incubated at 37 °C in a controlled atmosphere (5% O2, 5% CO2 Nitrogen balanced) for 72 h. After incubation, the plates were subject to a freeze–thaw cycle (−80 °C) and the parasite growth was quantified by the SYBR Green I method as previously described [33]. Briefly, 100 µL of homogenized parasite culture was transferred into 96-well black plates. […] The plates were incubated at room temperature in darkness for 1 h.\n(§8) Growth inhibition experiments were conducted at least three times per compound (biological replicates, n ≥ 3). The IC50 differences for each inhibitor between the two P. falciparum strains were compared with a t test."}, "[6]": {"tested_on": "P. falciparum chloroquine sensitive 3D7", "assay": "Growth inhibition assay (SYBR Green I), 3D7", "details": "3D7, 72 h; for IC50: synchronized ring culture", "procedure": "as §5, §6, §7, §8"}, "P. falciparum W2 [7]": {"tested_on": "P. falciparum W2", "assay": "Parasite stage specific effect, W2", "format": "cell-based, Plasmodium falciparum", "details": "W2, 24 h; 17-DMAG 1.2 µM, NVP-AUY922 0.72 µM", "description": "as §2"}, "[8]": {"details": "mouse, in vivo; cited from earlier work"}}, "note": "“Also recorded” adds a separate entry of the source. Read-outs that look alike come from different tables or passages of the source."}
{"smiles": "CO[C@H]1/C=C\\C=C(/C)C(=O)NC2=CC(=O)C(NCCN(C)C)=C(C[C@@H](C)C[C@H](OC)[C@H](O)[C@@H](C)/C=C(\\C)[C@@H]1OC(N)=O)C2=O", "note": "[17-DMAG, 17-(dimethylaminoethylamino)-17-demethoxygeldanamycin]", "values": [{"measurement": "kd", "setting": "human Hsp90α", "result": 0.007, "unit": "s⁻¹"}, {"measurement": "IC50", "setting": "[1]; Homo sapiens, Fibroblast, read-out: IC50 against human cells", "result": "> 10000", "unit": "nM"}, {"measurement": "growth inhibition for the human cells", "setting": "[1]; NHLF, 0.5 to 10 µM", "result": "≤ 25", "unit": "%"}, {"measurement": "growth of host cells compared to no drug controls", "setting": "[1]; NHLF, 0.5 to 10 µM, t test", "result": "only the highest concentration (10 µM) was significantly different from the controls"}, {"measurement": "effect against all parasite stages (ring, trophozoite, schizont)", "setting": "P. falciparum 3D7 [2]", "result": "effective against all parasite stages"}, {"measurement": "recovery time in combination with DHA vs DHA alone", "setting": "P. falciparum 3D7 [3]; 3D7, 48 h, two concentrations plus DHA 100 nM", "result": "more effective in combination against P. falciparum 3D7 but only at one of the lowest concentrations"}, {"measurement": "delay of culture recovery vs untreated control (cytocidal activity)", "setting": "P. falciparum 3D7 [3]; 3D7, 48 h exposure, 17-AAG 1.5-6 µM, 17-DMAG 0.3-1.2 µM, NVP-AUY922 0.18-0.72 µM", "result": "only significantly different from the control parasite cultures when assayed at a concentration ~8 times its average IC50; also recorded: strong cytotoxic activities"}, {"measurement": "ka", "setting": "P. falciparum Hsp90; SPR, 25 °C", "result": "208,000 1/Ms"}, {"measurement": "kd", "setting": "P. falciparum Hsp90; SPR, 25 °C", "result": 0.001, "unit": "s⁻¹"}, {"measurement": "Kd", "setting": "P. falciparum Hsp90; SPR, 25 °C, calculated from kinetic constants, read-out: Kd", "result": 8, "unit": "nM"}, {"measurement": "Kd", "setting": "P. falciparum Hsp90; read-out: Kd against the parasite chaperone", "result": 8.23, "unit": "nM"}, {"measurement": "ka", "setting": "P. falciparum Grp94", "result": "53,000 1/Ms"}, {"measurement": "kd", "setting": "P. falciparum Grp94", "result": 0.001, "unit": "s⁻¹"}, {"measurement": "Kd", "setting": "P. falciparum Grp94; calculated from kinetic constants, read-out: Kd", "result": 23, "unit": "nM"}, {"measurement": "recovery time in combination with DHA vs DHA alone", "setting": "P. falciparum W2 [4]; W2, 48 h, two concentrations plus DHA 100 nM", "result": "not significantly more toxic to W2"}, {"measurement": "delay of culture recovery vs untreated control (cytocidal activity)", "setting": "P. falciparum W2 [4]; W2, 48 h exposure, 17-AAG 1.5-6 µM, 17-DMAG 0.3-1.2 µM, NVP-AUY922 0.18-0.72 µM", "result": "only significantly different from the control parasite cultures when assayed at a concentration ~8 times its average IC50; also recorded: strong cytotoxic activities"}, {"measurement": "IC90", "setting": "[5]; Plasmodium falciparum", "result": 542, "unit": "nM"}, {"measurement": "IC50", "setting": "[5]; Plasmodium falciparum", "result": 169, "unit": "nM"}, {"measurement": "IC50", "setting": "[5]", "result": 170, "unit": "nM"}, {"measurement": "IC50", "setting": "[6]", "result": 118, "unit": "nM"}, {"measurement": "IC90", "setting": "[6]; Plasmodium falciparum", "result": 287, "unit": "nM"}, {"measurement": "IC50", "setting": "[6]; Plasmodium falciparum", "result": 118, "unit": "nM"}, {"measurement": "effect against all parasite stages (ring, trophozoite, schizont)", "setting": "P. falciparum W2 [7]", "result": "effective against all parasite stages"}, {"measurement": "tolerability", "setting": "[8]", "result": "well tolerated without any visible side effects"}]}
